Test results taken from ChEMBL document CHEMBL1127269, “Synthesis and DNA binding properties of a series of N to C linked and imidazole containing analogues of distamycin” (Bioorg Med Chem Lett, 1994).

How the values were obtained:
Assay type in all cases: nucleic-acid assay
Nucleic Acid [1] = assay: Tested for binding association constant against calf thymus using ethidium bromide assay; conditions: Bos taurus
Nucleic Acid [2] = assay: Tested for binding association constant against T4 coliphage DNA using ethidium bromide assay
Nucleic Acid [3] = assay: Tested for binding association constant against Poly (dA.dT) using ethidium bromide assay
Nucleic Acid [4] = assay: Tested for binding association constant against Poly (dG-dC) using ethidium bromide assay
Nucleic Acid [5] = assay: Tested for binding association constant against calf thymus DNA using ethidium bromide assay; conditions: Bos taurus

Row | SMILES | K app (Nucleic Acid [1]) | K app (Nucleic Acid [2]) | K app (Nucleic Acid [3]) | K app (Nucleic Acid [4]) | K app (Nucleic Acid [5])
1 | CN(C)CCNC(=O)c1nc(NC(=O)CCCNC(=O)c2nc(NC=O)cn2C)cn1C | 10000 M⁻¹ | 33000 M⁻¹ | 10000 M⁻¹ | 21000 M⁻¹ | –
2 | Cn1cc(NC(=O)c2cc(NC(=O)c3cc(NC=O)cn3C)cn2C)cc1C(=O)NCCC(=N)N | – | 650000 M⁻¹ | 3.48e+07 M⁻¹ | 200000 M⁻¹ | 770000 M⁻¹
3 | CN(C)CCNC(=O)c1nc(NC(=O)CCNC(=O)c2nc(NC=O)cn2C)cn1C | 150000 M⁻¹ | 140000 M⁻¹ | 12000 M⁻¹ | 580000 M⁻¹ | –

Continued, values first:

Row | K app (Nucleic Acid [1]) | K app (Nucleic Acid [2]) | K app (Nucleic Acid [3]) | K app (Nucleic Acid [4]) | K app (Nucleic Acid [5]) | SMILES
4 | 1.6e+06 M⁻¹ | 1.9e+06 M⁻¹ | 250000 M⁻¹ | 5.2e+06 M⁻¹ | – | CN(C)CCNC(=O)c1nc(NC(=O)c2nc(NC(=O)CCNC(=O)c3nc(NC=O)cn3C)cn2C)cn1C
5 | 48000 M⁻¹ | 140000 M⁻¹ | 50000 M⁻¹ | 92000 M⁻¹ | – | CN(C)CCNC(=O)c1nc(NC(=O)c2nc(NC(=O)CCCNC(=O)c3nc(NC=O)cn3C)cn2C)cn1C
